Laboratory results from ChEMBL document CHEMBL1134083, “Discovery of a nuclease-resistant, non-natural dinucleotide that inhibits HIV-1 integrase” (Bioorg Med Chem Lett, 2001).
pIC50: −log10 of the molar value.

Assays:
[1] = target: T1, Human immunodeficiency virus type 1 integrase (Human immunodeficiency virus 1, UniProt Q7ZJM1); assay: Inhibitory concentration required against recombinant wild type HIV integrase by reproducible assay (3' processing)
[2] = target: T1, Human immunodeficiency virus type 1 integrase; assay: Inhibitory concentration required against recombinant wild type HIV integrase by reproducible assay (Strand transfer)

T1 sequence (Q7ZJM1 whole entry): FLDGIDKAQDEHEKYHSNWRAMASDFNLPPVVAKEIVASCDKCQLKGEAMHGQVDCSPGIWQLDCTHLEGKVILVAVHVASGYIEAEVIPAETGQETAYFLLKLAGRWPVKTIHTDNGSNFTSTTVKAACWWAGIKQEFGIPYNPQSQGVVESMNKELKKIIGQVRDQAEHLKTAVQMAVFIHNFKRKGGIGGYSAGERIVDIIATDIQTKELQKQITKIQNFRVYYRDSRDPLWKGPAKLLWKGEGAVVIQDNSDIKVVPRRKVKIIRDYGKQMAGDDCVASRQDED

- pIC50 [1]: 5.12
- pIC50 [2]: 5.23
SMILES: Nc1ccn([C@H]2C[C@H](OP(=O)(O)OC[C@H]3OC[C@@H](n4ccc(=O)[nH]c4=O)[C@@H]3O)[C@@H](COP(=O)(O)O)O2)c(=O)n1
